Laboratory results taken from US7625928B2, “Nitroxide radioprotector formulations and methods of use” (priority 2002, dated 2009).

Experiment: In vitro percutaneous absorption of Tempol after multiple applications of Formulation V, Franz static diffusion cells, 30-minute exposures (Example II)
Assay type: in vitro ADME, human
Conditions: test 3, three applications, result in words
Method: The skin was wiped with two dry cotton swabs after each application. Upon completion of the final application and skin wiping, the stratum corneum was removed from the skin. […] Franz static diffusion cells (15 mm diameter orifice, O-ring joint, Crown Bio Scientific, Clinton, N.J.) were mounted on 9-cell manifolds and maintained at a constant temperature of 32° C. by use of re-circulating water baths. […] Each diffusion cell was assembled by placing the excised human abdominal skin from a single donor dermal-side down and then a Teflon® O-ring (which rested in the groove of the donor side, top half, of the diffusion cell. The donor side (top half) of the diffusion cell was then placed on top of the O-ring resting on the skin and held in place by use of a pinch clamp. The joint between the donor and receptor compartments of each cell was wrapped with Parafilm® to prevent evaporation of the receptor solution. […] Air bubbles were dispelled from under the skin. […] The formulation was applied in an alternating fashion to 6 diffusion cells at 0.18 mL of formulation per cell. The diffusion cell sampling port was sealed with […] ® to prevent evaporation. […] If appropriate, the cell was re-dosed with test formulation after removal of the previous dose using two cotton swabs wiped across the skin surface. […]

Question: Which “third application levels versus levels in the second time point” value does the source give for `CC1(C)CC(O)CC(C)(C)N1[O]` [Tempol, 4-hydroxy-2,2,6,6-tetramethylpiperidine-1-oxyl] here?
Answer: Its value is “twice as high”.
